# Source: patent US8753570B2, “Structure, synthesis, and applications for oligo phenylene ethynylenes” (STC.UNM, priority 2008, dated 2014)
# Test system: Bacillus atrophaeus
# Assay: Dark and uv biocidal activity
# Assay type: cell-based
compound,measurement,setting,value
C[N+](C)(C)CCCOc1ccc(C#Cc2ccc(C#Cc3ccc(OCCC[N+](C)(C)C)cc3)cc2)cc1 [S-OPE-EO],killing under uv,"365 nm uv light, 30 minutes",almost the same level killing
same,killing in the dark,"dark, 6 hour exposure",several log kills
same,biocidal activity,in the dark and upon uv irradiation,remarkable biocidal activity
